The values that follow come from patent publication US9737525B2, “Small molecule activators of NRF2 pathway” (The General Hospital Corporation, priority 2013, dated 2017).

Assay [1] has as its system α-tubulin K40 and histone H3 acetylation. Briefly: Acetylation of SIRT2 substrates in wild type primary cortical neurons. It is filed as cell-based, mouse. As for the experimental part:
To assess protein levels, cell extracts were prepared from cells washed with PBS and lysed with buffer containing 2% SDS, Complete EDTA-free Protease Inhibitor Cocktail (Roche) and 1 mM phenylmethylsulfonyl fluoride. To prepare brain extracts for analysis, frozen mouse cortical tissues were homogenized in PBS containing protease inhibitors with an Kontes Pellet Pestle (Kimble/Kontes). They were later sonicated and lysed overnight at 4° C. in 2× volume of lysis buffer containing 2% SDS and protease inhibitors. Protein concentrations in ST14A cell extracts and homogenized cortical tissues were evaluated using a BCA analysis kit and normalized. Samples were prepared in a SDS buffer containing DTT and separated on bis-acrylamide protein gels via electrophoresis and transferred onto a 0.2 μm PVDF membrane). Membranes were probed for NQO1 (Sigma N5288, 1:1,000), GCLM, (Abcam ab126704, 1:800), SIRT2 (Sigma S8447, 1:2,500), histone H3 (Cell Signaling 4499, 1:2,000), acetylated H3 (K56) (Millipore 04-1135, 1:500), TNFα (Abcam ab1793, 1:1,500), GADPH (Millipore MAB374, 1:10,000), actin (Sigma A2066, 1:1250), α-tubulin (Sigma T6074, 1:20,000), and acetylated α-tubulin (Sigma T6793, 1:2,500) overnight in 5% milk in PBST at 4° C. on a rocker. Membranes were thrice washed in PBST for 15 min on a shaker and incubated in either an anti-rabbit-HRP (Bio-Rad 170-5046, 1:10,000) or anti-mouse-HRP (Sigma A3682, 1:4,000) secondary solution as appropriate in 3% milk in PBST for 1 hr at room temperature on a rocker. After four washes of 15 min in PBST on a shaker, blots were visualized using SuperSignal West Pico Chemiluminescent Substrate (Pierce 34080) or SuperSignal West Dura Extended Duration Substrate (Thermo 34075) and exposed on Scientific Imaging Film (Kodak 864 6770).
Based upon the robust neuroprotection observed in HD model systems expressing both mutant HTT fragments and full-length mutant HTT, verification of the bioactivity of MIND4 as SIRT2 inhibitor in primary neurons was sought. […]

Assay [2] relates to dopaminergic neurons. Briefly: MPTP mouse model of Parkinson's disease. It is filed as in vivo. The protocol: Male C57BL/6 mice (˜25 g) from Charles River Laboratories, Wilmington, Mass. were housed in temperature- and humidity-controlled rooms with a 12 hr dark: light cycle and had free access to food and water. Subacute MPTP paradigm (20 mg/kg i.p. injection once daily for 4 days) was employed to test dose response of MIND4 at 30 mg/kg, 60 mg/kg, or 90 mg/kg (i.p. 10 min before and 50 min after each MPTP injection). The effective dose of 60 mg/kg was used in the subsequent experiments (i.p. 10 min before and 50 min after each MPTP injection). Control animals received saline (control for MPTP) and 10% propylene glycol and 90% dextrose as vehicle for MIND4 by i.p. Mice were sacrificed 7 days after the last MPTP administration and striatal DA and metabolite HVA were determined by high performance liquid chromatography (HPLC) coupled with electrochemical detection (ECD) Immunostaining for tyrosine hydroxylase (TH), a marker for dopaminergic neurons was performed using mouse anti-TH antibody (Sigma, ST. Louis, Mo.). Total numbers of TH positive neurons in the substantia nigra (SN) were counted under blinded conditions using the Bioquant Image Analysis System (R&M Biometrics, Nashville, Tenn.).
The protective effects of CPD4 have been confirmed in both acute and subchronic PTP paradigms by comprehensive behavioral, neurochemical, and neuropathological evaluations (FIG. 18). CPD4 was administrated i.p. at 20 mg/kg 10 min before and 50 min after MPTP 20 mg/kg i.p. once daily for 4 days (subchronic regimen) (FIG. 18A). High performance liquid chromatography (HPLC) coupled with electrochemical detection was used to show attenuated dopamine (DA) loss induced by MPTP in the striatum (FIG. 18B). Dopaminergic cell counts in the substantia nigra (SN) were also measured in treated mice and compared to the control (MPTP group) (FIG. 18C). Tyrosine hydroxylase (TH) immunostained dopaminergic neurons were also imaged in the SN (FIG. 18D).

In the case of `O=[N+]([O-])c1ccc(Sc2nnc(COc3ccccc3)n2-c2ccccc2)c2ncccc12` [MIND4, 5-nitro-8-{[5-(phenoxymethyl)-4-phenyl-4H-1,2,4-triazol-3-yl]thio}quinoline], the “Acetylation of histone 3 K56 and K27” value in assay [1] (primary neurons, 6 hr) is “increased acetylation of histone 3 K56 and K27”. In addition, the “Acetylation of α-tubulin and Histone 3 K56” value in assay [1] (wild type primary cortical neurons (DIV11), 6 hours) is given as “only subtle increases of acetylation”. Also, the “MPTP induced DA loss in the striatum” value in assay [2] (60 mg/kg i.p.) is reported as “mild but significant protection”. Besides, in assay [2] (60 mg/kg vs MPTP group), the “Residual DA and DA turnover rate (HVA/DA)” value was “increased level of residual DA and decreased DA turnover rate”. In addition, in assay [2] (vs MPTP alone group), the “Dopaminergic neurons in the SN (stereological analysis)” value was “more remaining dopaminergic neurons”.
